Laboratory results: ChEMBL document CHEMBL1909046, “DrugMatrix in vitro pharmacology data”

Tests used:
[1] = molecular target: Sodium-dependent noradrenaline transporter (Homo sapiens, UniProt P23975); assay: DRUGMATRIX: Norepinephrine Transporter radioligand binding (ligand: [125I] RTI-55); assay type: cell membranes, MDCK, Membrane; details: Not Active = under 50% inhibition at 10 µM; for Ki: read-out: Ki
[2] = DRUGMATRIX: beta-Lactamase enzyme inhibition (substrate: Nitrocefin); design: species or system Bacillus cereus; details: Not Active = under 50% inhibition at 10 µM
[3] = molecular target: 5-hydroxytryptamine receptor 4 (Cavia porcellus, UniProt O70528); assay type: cell membranes, Dunkin-Hartley, Striatum, Membrane; note: in other assays of this panel Not Active means under 50% inhibition at 10 µM
Substance-K receptor = molecular target: T1, Substance-K receptor (Homo sapiens, UniProt P21452); assay type: cell membranes, CHO, Membrane; details: cho; note: in other assays of this panel Not Active means under 50% inhibition at 10 µM
T1 sequence (P21452 whole entry): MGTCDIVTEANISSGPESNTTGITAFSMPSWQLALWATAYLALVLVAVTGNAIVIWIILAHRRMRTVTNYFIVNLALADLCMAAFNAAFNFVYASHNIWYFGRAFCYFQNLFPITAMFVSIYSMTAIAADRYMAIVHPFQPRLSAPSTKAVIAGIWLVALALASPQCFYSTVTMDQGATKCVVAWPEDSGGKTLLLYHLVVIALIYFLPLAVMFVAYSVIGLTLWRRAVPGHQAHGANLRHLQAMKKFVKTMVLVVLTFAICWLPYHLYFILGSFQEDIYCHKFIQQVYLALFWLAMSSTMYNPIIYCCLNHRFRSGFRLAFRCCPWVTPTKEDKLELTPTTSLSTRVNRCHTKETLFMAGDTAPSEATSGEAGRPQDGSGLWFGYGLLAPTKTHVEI

[4] = DRUGMATRIX: Glutamate, Kainate radioligand binding (ligand: [3H] Kainic acid); assay type: cell membranes, Rattus norvegicus, Wistar, Brain, Membrane; details: Not Active = under 50% inhibition at 10 µM
[5] = molecular target: T2, Angiotensin-converting enzyme (Oryctolagus cuniculus, UniProt P12822); assay type: tissue-based, Lung;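 note: enzymatic inhibition of angiotensin-converting enzyme measured with FAPGG as the substrate; in other assays of this panel Not Active means under 50% inhibition at 10 µM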
T2 sequence (P12822 whole entry): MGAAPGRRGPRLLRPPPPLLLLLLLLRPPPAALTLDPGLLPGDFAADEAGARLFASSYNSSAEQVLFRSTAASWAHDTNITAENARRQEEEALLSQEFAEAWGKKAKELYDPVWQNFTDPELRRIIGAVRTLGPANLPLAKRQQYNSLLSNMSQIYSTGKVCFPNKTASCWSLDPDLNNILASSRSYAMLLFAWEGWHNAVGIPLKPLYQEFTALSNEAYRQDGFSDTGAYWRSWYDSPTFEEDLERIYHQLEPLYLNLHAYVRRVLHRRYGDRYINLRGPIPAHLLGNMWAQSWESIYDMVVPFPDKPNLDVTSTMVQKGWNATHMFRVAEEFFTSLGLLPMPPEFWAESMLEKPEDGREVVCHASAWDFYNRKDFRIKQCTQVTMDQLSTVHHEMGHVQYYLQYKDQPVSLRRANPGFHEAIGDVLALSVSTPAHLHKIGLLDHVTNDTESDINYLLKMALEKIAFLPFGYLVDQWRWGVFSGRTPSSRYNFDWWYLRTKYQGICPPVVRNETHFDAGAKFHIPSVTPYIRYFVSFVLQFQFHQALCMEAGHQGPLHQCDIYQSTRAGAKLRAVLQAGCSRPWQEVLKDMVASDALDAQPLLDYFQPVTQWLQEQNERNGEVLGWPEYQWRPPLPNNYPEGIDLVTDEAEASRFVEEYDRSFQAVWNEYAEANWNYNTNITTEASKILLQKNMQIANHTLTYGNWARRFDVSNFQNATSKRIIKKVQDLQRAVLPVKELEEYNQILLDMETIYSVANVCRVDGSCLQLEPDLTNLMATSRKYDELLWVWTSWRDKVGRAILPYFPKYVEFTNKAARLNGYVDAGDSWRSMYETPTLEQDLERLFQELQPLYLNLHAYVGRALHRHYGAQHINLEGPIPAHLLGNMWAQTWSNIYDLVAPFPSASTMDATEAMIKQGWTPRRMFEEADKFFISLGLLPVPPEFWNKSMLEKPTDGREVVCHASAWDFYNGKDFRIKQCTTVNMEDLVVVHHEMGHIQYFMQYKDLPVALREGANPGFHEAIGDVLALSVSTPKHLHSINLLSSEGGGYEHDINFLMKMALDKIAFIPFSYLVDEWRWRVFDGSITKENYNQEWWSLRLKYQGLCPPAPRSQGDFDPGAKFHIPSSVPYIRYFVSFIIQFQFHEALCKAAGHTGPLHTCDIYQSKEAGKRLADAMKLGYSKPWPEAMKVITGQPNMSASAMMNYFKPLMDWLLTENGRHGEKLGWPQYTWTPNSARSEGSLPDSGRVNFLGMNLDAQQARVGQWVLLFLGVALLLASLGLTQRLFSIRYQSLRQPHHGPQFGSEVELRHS

Chain of 5-hydroxytryptamine receptor 4 (O70528 whole entry): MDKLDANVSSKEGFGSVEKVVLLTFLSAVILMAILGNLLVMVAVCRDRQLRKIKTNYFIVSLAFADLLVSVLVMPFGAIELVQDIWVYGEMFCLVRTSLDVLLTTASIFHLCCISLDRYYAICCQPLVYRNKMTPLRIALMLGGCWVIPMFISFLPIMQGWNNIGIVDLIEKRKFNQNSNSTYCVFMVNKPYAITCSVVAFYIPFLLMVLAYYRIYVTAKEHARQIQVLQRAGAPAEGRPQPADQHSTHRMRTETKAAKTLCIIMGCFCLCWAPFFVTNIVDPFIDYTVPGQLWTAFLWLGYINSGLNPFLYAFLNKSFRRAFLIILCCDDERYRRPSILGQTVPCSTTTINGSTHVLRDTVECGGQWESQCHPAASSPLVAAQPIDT
Chain of Sodium-dependent noradrenaline transporter (P23975 whole entry): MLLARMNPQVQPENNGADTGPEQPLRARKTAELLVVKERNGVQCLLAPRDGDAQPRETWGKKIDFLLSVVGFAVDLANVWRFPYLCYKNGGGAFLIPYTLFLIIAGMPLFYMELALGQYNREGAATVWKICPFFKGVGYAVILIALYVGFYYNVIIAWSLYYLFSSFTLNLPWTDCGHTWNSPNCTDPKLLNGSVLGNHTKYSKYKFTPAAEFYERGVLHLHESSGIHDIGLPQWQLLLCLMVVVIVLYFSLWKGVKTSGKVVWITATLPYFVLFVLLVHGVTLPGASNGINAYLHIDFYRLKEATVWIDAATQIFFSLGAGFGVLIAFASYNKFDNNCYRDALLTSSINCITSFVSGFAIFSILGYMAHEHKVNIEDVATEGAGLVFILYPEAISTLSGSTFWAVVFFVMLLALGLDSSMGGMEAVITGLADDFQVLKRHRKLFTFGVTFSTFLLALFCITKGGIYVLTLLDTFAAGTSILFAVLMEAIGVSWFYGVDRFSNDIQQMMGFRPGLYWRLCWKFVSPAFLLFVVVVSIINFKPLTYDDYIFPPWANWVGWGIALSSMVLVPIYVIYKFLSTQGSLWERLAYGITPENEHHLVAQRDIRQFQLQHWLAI

| Compound | IC50 ([1]; mdck) | IC50 [2] | Ki [2] | IC50 [3] | IC50 (Substance-K receptor) | IC50 [4] | Ki [4] | IC50 [5] | IC50 ([1]; read-out: IC50) [nM] | Ki [1] [nM] | IC50 ([1]; mdck, read-out: IC50) [nM] | Ki ([1]; mdck) [nM] | Ki [3] | Ki (Substance-K receptor) | Ki [5] |
| --- | --- | --- | --- | --- | --- | --- | --- | --- | --- | --- | --- | --- | --- | --- | --- |
| CCS(=O)(=O)CCn1c([N+](=O)[O-])cnc1C [TINIDAZOLE] | Not Active | Not Active | Not Active | Not Active | Not Active | Not Active | Not Active | Not Active |  |  |  |  |  |  |  |
| Nc1nc2c(c(=O)[nH]1)N(C=O)C(CNc1ccc(C(=O)N[C@@H](CCC(=O)O)C(=O)O)cc1)CN2 (some centres not stated) [LEUCOVORIN] | Not Active | Not Active | Not Active | Not Active | Not Active | Not Active | Not Active | Not Active |  |  |  |  |  |  |  |
| CC(=O)O[C@H]1C[C@@H]2CC[C@@H]3[C@H](CC[C@@]4(C)[C@H]3C[C@H]([N+]3(C)CCCCC3)[C@@H]4OC(C)=O)[C@@]2(C)C[C@@H]1N1CCCCC1.[Br-] [VECURONIUM BROMIDE] | Not Active | Not Active | Not Active | Not Active | Not Active | Not Active | Not Active | Not Active |  |  |  |  |  |  |  |
| C[C@@H](O)[C@H]1C(=O)N2C(C(=O)O)=C(S[C@@H]3CN[C@H](C(=O)N(C)C)C3)[C@H](C)[C@H]12 [MEROPENEM] | Not Active | Not Active | Not Active | Not Active | Not Active | Not Active | Not Active | Not Active |  |  |  |  |  |  |  |
| Cc1cn([C@H]2C[C@H](N=[N+]=[N-])[C@@H](CO)O2)c(=O)[nH]c1=O [ZIDOVUDINE] | Not Active | Not Active | Not Active | Not Active | Not Active | Not Active | Not Active | Not Active |  |  |  |  |  |  |  |
| COc1cc(N)nc2[nH]c(-c3ccc(F)cc3)c(-c3ccncc3)c12 |  | Not Active | Not Active | Not Active | Not Active | Not Active | Not Active | Not Active | 1070 | 1060 |  |  |  |  |  |
| CN1C2CCCC1CC(NC(=O)c1nn(C)c3ccccc13)C2 (configuration not stated) [GRANISETRON] | Not Active |  |  | Not Active | Not Active |  |  | Not Active |  |  |  |  |  |  |  |
| THIMEROSAL |  | Not Active | Not Active | Not Active | Not Active | Not Active | Not Active | Not Active |  |  | 931 | 923 | Not Active | Not Active | Not Active |
| C[C@]12CC[C@H]3[C@@H](CCC4=CC(=O)CC[C@@]43C)[C@@H]1CC[C@@H]2O [TESTOSTERONE] | Not Active | Not Active | Not Active | Not Active | Not Active | Not Active | Not Active | Not Active |  |  |  |  |  |  |  |
| CNS(=O)(=O)Cc1ccc2[nH]cc(CCN(C)C)c2c1 | Not Active | Not Active | Not Active | Not Active | Not Active | Not Active | Not Active | Not Active |  |  |  |  |  |  |  |
| CO[C@H]1C[C@@H]2CC[C@@H](C)[C@@](O)(O2)C(=O)C(=O)N2CCCC[C@H]2C(=O)O[C@H]([C@H](C)C[C@@H]2CC[C@@H](O)[C@H](OC)C2)CC(=O)[C@H](C)/C=C(\C)[C@@H](O)[C@@H](OC)C(=O)[C@H](C)C[C@H](C)/C=C/C=C/C=C/1C [SIROLIMUS] | Not Active | Not Active | Not Active | Not Active | Not Active | Not Active | Not Active | Not Active |  |  |  |  |  |  |  |
| CC(C)OC(=O)C(C)(C)Oc1ccc(C(=O)c2ccc(Cl)cc2)cc1 [FENOFIBRATE] |  |  |  | Not Active | Not Active |  |  | Not Active |  |  |  |  |  |  |  |
